This passage reports EC50 results from patent US12338228B2, “NLRP3 modulators” (Innate Tumor Immunity, Inc., priority 2019, dated 2025).

T1 sequence (Q96P20 whole entry): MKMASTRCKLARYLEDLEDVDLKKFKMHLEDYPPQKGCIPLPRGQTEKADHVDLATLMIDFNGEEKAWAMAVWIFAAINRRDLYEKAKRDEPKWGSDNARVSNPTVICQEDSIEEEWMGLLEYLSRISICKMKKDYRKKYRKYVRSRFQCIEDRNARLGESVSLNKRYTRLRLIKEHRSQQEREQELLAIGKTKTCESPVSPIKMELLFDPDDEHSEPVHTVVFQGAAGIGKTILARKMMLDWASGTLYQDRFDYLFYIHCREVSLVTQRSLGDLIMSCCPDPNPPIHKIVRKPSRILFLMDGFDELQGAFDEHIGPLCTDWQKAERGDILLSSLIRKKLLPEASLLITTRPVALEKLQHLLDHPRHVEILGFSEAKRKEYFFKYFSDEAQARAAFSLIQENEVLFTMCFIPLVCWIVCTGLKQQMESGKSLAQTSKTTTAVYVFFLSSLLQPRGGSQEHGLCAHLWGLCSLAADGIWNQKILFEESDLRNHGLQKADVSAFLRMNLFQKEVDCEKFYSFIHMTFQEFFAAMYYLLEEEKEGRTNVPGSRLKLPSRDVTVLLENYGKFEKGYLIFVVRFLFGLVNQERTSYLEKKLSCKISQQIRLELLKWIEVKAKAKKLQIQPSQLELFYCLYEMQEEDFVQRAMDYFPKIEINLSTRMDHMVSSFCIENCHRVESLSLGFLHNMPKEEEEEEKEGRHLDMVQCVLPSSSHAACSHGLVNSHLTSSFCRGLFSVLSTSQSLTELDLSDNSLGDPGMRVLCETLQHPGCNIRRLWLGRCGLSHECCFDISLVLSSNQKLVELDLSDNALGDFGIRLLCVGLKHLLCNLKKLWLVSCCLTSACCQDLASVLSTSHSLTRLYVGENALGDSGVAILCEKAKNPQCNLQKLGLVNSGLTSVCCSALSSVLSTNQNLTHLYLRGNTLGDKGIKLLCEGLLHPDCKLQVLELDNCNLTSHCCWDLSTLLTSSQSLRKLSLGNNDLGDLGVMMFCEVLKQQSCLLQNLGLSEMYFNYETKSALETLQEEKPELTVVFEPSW

The assay has as its target T1, NLRP3 (Homo sapiens, UniProt Q96P20).
T1 construct: host or cells: PMA-differentiated THP-1 cells
The assay can be described thus: Measurement of IL-1β production in PMA-differentiated THP-1 cells (NLRP3 hIL1β). It is filed as cell-based. The protocol:
Serial dilutions of compounds in DMSO were added to low volume 384 well plates at 100 nl/well using an ECHO 550 acoustic dispenser (Labcyte) to achieve final starting concentration of 10 μM in assay.
THP-1 cells in RPMI (Gibco, 11875) media with 10% FBS at a density of 1×10^6 cell/ml in a T175 flask were treated with a final concentration of phorbol 12-myristate 13-acetate (PMA) (Sigma,P1585) of 50 ng/ml overnight at 37° C. at 5% CO2 for differentiation. Cells were harvested the next day after rinsing well with dPBS using 0.5% trypsin. A cell solution was prepared of 1×10^6 cells/ml for 50,000 cells in 50 μl/well in RPMI media with 2% FBS. Cells were plated using a multichannel pipette onto the compound dilutions in Greiner, 384 well, black clear bottom tissue culture treated plates (781090). The plates were incubated in 37° C. incubator at 5% CO2 for 2 hours.
After the 2 hour incubation, the cell plates were spun in the centrifuge for 5 minutes at 1200 rpm. Using the Felix (CyBio), 8 μl of the supernatant was transferred to 384 well, low volume, white proxy plates. (Perkin Elmer, 6008230). A human IL1beta hTRF kit was used to analyze the supernatant (CISBIO, 62HIL1BPEG). The kit instructions were followed for preparing the IL1Beta standard curve and then the antibodies from the kit were diluted 1:40 rather than 1:20 as kit instructed. Once combined, the antibodies were added across the plates, 5 μl/well. The plates were sealed and incubated at 4° C. overnight. The plates were then read on the Perkin Elmer EnVision at 665/615 nm using the hTRF laser.
Broadly, the EC50 is the concentration that produces a half-maximal response. With `Nc1nc2cc(-c3ccn[nH]3)ccc2c(NCCO)c1C1CCCC1` [Example 14, 2-((2-Amino-3-cyclopentyl-7-(1H-pyrazol-5-yl)quinolin-4-yl)amino)ethan-1-ol], the midpoint of the response, the EC50, lay at 260 nM. In other words, the sub-micromolar range. In turn, `Nc1cc(NCCCO)c2ccc(-c3cc[nH]n3)c(F)c2n1` [Example 4, 3-((2-Amino-8-fluoro-7-(1H-pyrazol-3-yl)quinolin-4-yl)amino)propan-1-ol] came in with a concentration for a half-maximal effect (EC50) of 330 nM.

For the molecule “3-((2-Amino-3-cyclopentyl-7-(1H-pyrazol-5-yl)quinolin-4-yl)amino)propan-1-ol [Example 16]”, the midpoint of the response, the EC50, lay at 260 nM. Consider `Nc1cc(NCCCO)c2c(F)cc(-c3cc[nH]n3)cc2n1` [Example 7, 3-((2-Amino-5-fluoro-7-(1H-pyrazol-3-yl)quinolin-4-yl)amino)propan-1-ol], for which the concentration giving a half-maximal response (EC50) was determined as 230 nM.

In turn, `Nc1cc(NCc2ccn[nH]2)c2ccc(-c3ccn[nH]3)c(F)c2n1` [Example 11, N4-((1H-Pyrazol-5-yl)methyl)-8-fluoro-7-(1H-pyrazol-5-yl)quinoline-2,4-diamine] gave an EC50 of 710 nM. This EC50 lies about 3.1-fold higher than the previous one. The molecule `Cc1cc(-c2cc[nH]n2)cc2nc(N)cc(NCc3cc[nH]n3)c12` [Example 6, N4-((1H-Pyrazol-3-yl)methyl)-5-methyl-7-(1H-pyrazol-3-yl)quinoline-2,4-diamine] returned an EC50 of 1400 nM. In turn, `Nc1nc2cc(-c3ccn[nH]3)ccc2c(NCc2ccccn2)c1C1CCCC1` [Example 15, 3-Cyclopentyl-7-(1H-pyrazol-5-yl)-N4-(pyridin-2-ylmethyl)quinoline-2,4-diamine] displayed a concentration giving a half-maximal response (EC50) of 440 nM. Compared with the last molecule, the EC50 is about 3.2-fold lower.

The molecule `Cc1c(N)nc2cc(-c3ccn[nH]3)ccc2c1NCc1ccn[nH]1` [Example 13, N4-((1H-Pyrazol-5-yl)methyl)-3-methyl-7-(1H-pyrazol-5-yl)quinoline-2,4-diamine] showed an EC50 of 450 nM. This EC50 and that of the molecule before are within 1.5-fold of each other. Molecule `Cc1c(N)nc2cc(-c3ccn[nH]3)ccc2c1NCCCO` [Example 12, 3-((2-Amino-3-methyl-7-(1H-pyrazol-5-yl)quinolin-4-yl)amino)propan-1-ol] returned an EC50 of 2900 nM.

In turn, `Nc1nc2cc(-c3cc[nH]n3)ccc2c(N[C@H]2CC[C@H](O)C2)c1F` [Example 2, (1 S,3 S)-3-((2-Amino-3-fluoro-7-(1H-pyrazol-3-yl)quinolin-4-yl)amino)cyclopentan-1-ol] had a 50% effective concentration (EC50) of 600 nM. Molecule `Nc1cc(NCc2cc[nH]n2)c2c(F)cc(-c3cc[nH]n3)cc2n1` [Example 9, N4-((1H-Pyrazol-3-yl)methyl)-5-fluoro-7-(1H-pyrazol-3-yl)quinoline-2,4-diamine] yielded an EC50 of 290 nM. `Nc1cc(N[C@H]2CC[C@H](O)C2)c2c(F)cc(-c3cc[nH]n3)cc2n1` [Example 8, (1S,3S)-3-((2-Amino-5-fluoro-7-(1H-pyrazol-3-yl)quinolin-4-yl)amino)cyclopentan-1-ol]: the EC50 was 230 nM. For `Nc1nc2cc(-c3cc[nH]n3)ccc2c(NCCCO)c1F` [Example 1, 3-((2-Amino-3-fluoro-7-(1H-pyrazol-3-yl)quinolin-4-yl)amino)propan-1-ol] the value was 160 nM. Molecule `Nc1nc2cc(-c3cc[nH]n3)ccc2c(NCCCO)c1Cl` [Example 3, 3-((2-Amino-3-chloro-7-(1H-pyrazol-3-yl)quinolin-4-yl)amino)propan-1-ol] came in with a half-maximal effective concentration (EC50) of 350 nM. `Nc1cc(N[C@H]2CCOC2)c2c(F)cc(-c3cc[nH]n3)cc2n1` [Example 10, (S)-5-Fluoro-7-(1H-pyrazol-3-yl)-N4-(tetrahydrofuran-3-yl)quinoline-2,4-diamine] returned a 50% effective concentration (EC50) of 850 nM. Against the preceding molecule, the EC50 is about 2.4-fold higher. For `Cc1cc(-c2cc[nH]n2)cc2nc(N)cc(N[C@H]3CC[C@H](O)C3)c12` [Example 5, (1S,3S)-3-((2-Amino-5-methyl-7-(1H-pyrazol-3-yl)quinolin-4-yl)amino)cyclopentan-1-ol] the value was 4000 nM.
